Results: PMC3609778, “Truncated and Helix-Constrained Peptides with High Affinity and Specificity for the cFos Coiled-Coil of AP-1” (PLoS ONE, 2013)
“Also recorded” adds a separate entry of the source. Where a SMILES comes first, the peptide text is derived from it. Bridges are numbered along the chain shown (N, C = ends). [ ]: non-standard residue; d: D form. Cha = N[C@@H](CC1CCCCC1)C(=O)O

Legend:
cJun = assay: CD spectra and thermal denaturation of peptide-cJun mixtures (specificity); format: binding; settings: equimolar with cJun
Method: (§1) To establish if the truncated and constrained peptides retained the interaction specificity of the JunWCANDI parent peptide, peptides capable of interacting with cFos were also incubated at equimolar concentrations with cJun and monitored via CD spectra. […] In addition, a dimer exchange experiment was performed for the most helical peptide 24. Spectra for a cJun-peptide solution and a cFos solution should, upon mixing, generate an averaged spectrum if there was no dimer exchange. […] Spectra for both mixtures can be superimposed (Figure S4).
Supplementary file pone.0059415.s002.tiff: Figure S2 Raw thermal melting data for homo and heterodimeric complexes with cJun for constrained peptides 1 , 2 , 8 , 9, 10 , 11, 12, 17, 20, 22, and 24 . […] (TIFF) Click here for additional data file.
Supplementary file pone.0059415.s003.tiff: Figure S3 CD spectra as MRE both in isolation and as a mixture with cJun. From these raw data it is also clear that no interaction is occurring between constrained peptides and cJun. Rather, specta appear as averages of their homodimeric components (i.e. superimpose with the homomeric averages). We observe no heteromeric helical signal (red) that exceeds the average (black dotted line) of cJun (black) and the constrained peptide (blue), that would be anticipated for a non-interacting pair. (TIFF) Click here for additional data file.
Supplementary file pone.0059415.s005.doc: Table S1 Helical Data obtained via Circular Dichroism. Shown are A) homo and B) heteromeric samples. […] A ratio higher than 1 is generally indicated evidence that a coiled coil has formed, while a ratio of less than 0.9 is taken to indicate the presence of isolated helices. Shown in column two are the calculated fractional helicities taken from the Molar Residue Ellipticity at […]. Fraction helicity (ƒH) can be calculated as ƒH = (θ222−θc)/(θ222∞−θc) where θ222∞ = (−44000+250*T)*(1−k/Nr) and θc = 2220–(53*T). […] Measured helicity for the original JunWCANDI peptide and for the template on which the hydrocarbon constraints have been introduced. […]

cFos [1] = molecular target: T1, cFos (Homo sapiens, UniProt P01100); assay: Dimer exchange experiments between cJun, cFos and constrained peptide (CD spectra); format: binding; settings: equimolar mixtures, CD spectra compared with average of constituent spectra
T1 sequence (P01100 whole entry): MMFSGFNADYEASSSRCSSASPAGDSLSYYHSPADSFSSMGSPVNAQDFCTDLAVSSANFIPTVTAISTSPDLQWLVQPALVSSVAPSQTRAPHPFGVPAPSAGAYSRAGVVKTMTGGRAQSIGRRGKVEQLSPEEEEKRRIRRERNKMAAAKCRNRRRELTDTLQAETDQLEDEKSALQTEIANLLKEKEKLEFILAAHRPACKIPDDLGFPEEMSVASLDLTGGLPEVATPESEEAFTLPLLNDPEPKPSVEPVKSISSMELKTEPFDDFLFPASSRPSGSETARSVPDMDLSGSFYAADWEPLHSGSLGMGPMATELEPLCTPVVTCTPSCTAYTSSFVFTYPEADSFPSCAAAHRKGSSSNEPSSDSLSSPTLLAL
Method: as §1
(TIFF) Click here for additional data file.

cFos [2] = molecular target: T1, cFos; assay: Circular dichroism spectra of peptide-cFos mixtures; format: binding; settings: mixture with cFos; for Peptide-cFos Ɵ222/208 (20ºC): CD ratio, 20 °C; for Peptide-cFos Fraction helical (ƒH): CD 222 nm, 20°C, 150 µM total peptide
Method: (§2) Circular dichroism (CD) spectroscopy was conducted with an Applied Photophysics Chirascan CD spectroploarimeter (Leatherhead, U.K.) using a 200 µL sample in a CD cell with a 1 mm path length (Hellma, Müllheim Germany). Samples contained 150 µM total peptide concentration suspended in 10 mM potassium phosphate and 100 mM potassium fluoride at pH 7. The CD spectra of the homodimeric and heterodimeric complexes were scanned between 300 nm and 190 nm at 20°C (for both pre- and post-melt samples to check for reversibility of unfolding) and at −8°C to assess helical levels and coiled-coil structure (see Figure 4).
(§3) Thermal denaturation data and spectra for the cFos homotypic complex (black), helix constrained peptide (blue), and heteromeric complex (red) were recorded using 200 µL of sample at 150µM total peptide concentration (Figure 4, Figure S1). Next, 100 µL of each solution was mixed and the spectra taken such that the final total peptide concentration was also 150 µM. More experimental procedures can be found in File S1.
(§4) Supplementary file pone.0059415.s005.doc: Table S1 Helical Data obtained via Circular Dichroism. Shown are A) homo and B) heteromeric samples. […] A ratio higher than 1 is generally indicated evidence that a coiled coil has formed, while a ratio of less than 0.9 is taken to indicate the presence of isolated helices. Shown in column two are the calculated fractional helicities taken from the Molar Residue Ellipticity at […]. Fraction helicity (ƒH) can be calculated as ƒH = (θ222−θc)/(θ222∞−θc) where θ222∞ = (−44000+250*T)*(1−k/Nr) and θc = 2220–(53*T). In these equations the wavelength dependent constant k = 2.4 (at 222 nm), Nr = the number of residues, and T = 20 degrees Celsius (293 K). The 222/208 ratio is used to provide evidence on whether the helices are monomeric or are adopting a quaternary structure. Measured helicity for the original JunWCANDI peptide and for the template on which the hydrocarbon constraints have been introduced. […] The N- and C-capping motifs have been removed for the constrained since they are considered to be largely redundant upon their introduction. (DOC) Click here for additional data file.

Serum stability = format: in vitro ADME; settings: 200 µL of 1 mg/ml peptide in water added to 800 µL human serum, 37°C, aliquots 0-24 h, acetonitrile/water 3:1, LC-MS-MS total ion counts
Method: Stock solutions of 12 and 24 in both constrained forms and linear forms lacking constraints were prepared in water (1 mg/ml), 200 µL was added to human serum (800 µL) and incubated at 37°C. Aliquots (100 µL) of this diluted serum were removed at 0, 0.5, 1, 2, 4, 16, and 24 hours and a mixture of acetonitrile/water 3∶1 (300 µL) was added to each aliquot before centrifuging (17000 rpm, 15 min). Aliquots (100 µL) of the supernatant were then analysed by LC-MS-MS after passing through a 2.1×150 mm Phenomenex 300A C18 5 µm column at 10% per minute linear gradient from 0–100% acetonitrile over 12 minutes. The amount of starting material was quantified by determination of total ion counts for the m/3+ and m/4+ ion for each peptide (Figure 3).

[3] = Circular dichroism helicity of peptide in isolation (homotypic); format: physicochemical; settings: for Homotypic Ɵ222/208 (20ºC): CD ratio, 20 °C; for Homotypic Ɵ222/208 (20ºC) / Fraction helical (ƒH), homotypic: peptide in isolation; for Fraction helical (ƒH), homotypic: from CD molar residue ellipticity at 222 nm
Method: as §2, §4

cFos [4] = molecular target: T1, cFos; assay: Isothermal Titration Calorimetry (ITC) of peptides with cFos; format: binding; settings: 20°C
Method: Figure 5 Isothermal Titration Calorimetry (ITC) analysis of leucine zipper domain interactions between constrained peptides and cFos. Shown are isotherms for all ten measureable heterodimers (1, 2, 8, 10, 11, 12, 17, 20, 22, and 24) injected into a cell containinginto cFos. The top and bottom panels show, respectively, raw data after baseline correction. During ITC experiments, approximately 200–600 µM of peptide A was injected in 30–40×5 µl batches from the injection syringe into the cell, which contained 10–40 µM cFos. Both partners were in a 10 mM Potassium Phosphate buffer, 100 mM Potassium Fluoride at pH 7. Experiments were undertaken at 20°C. […]
ITC Measurements - ITC measurements were made using a Microcal VP-ITC instrument with data collected and processed using the Origin 7.0 software package. […] The change in thermal power as a function of each injection was automatically recorded using the Microcal Origin software and the raw data were integrated to yield ITC isotherms of heat release per injection as a function of Fos to Jun Molar ratio (Figure 5). […]
where R is the universal molar gas constant (1.9872 cal·K^-1·mol^-1), T is the absolute temperature in Kelvin (293.15 K) and KD is the dissociation constant of binding with units of mol·L^-1. Finally, the entropic contribution (TΔS) to the free energy of binding was calculated using the derived values of ΔH and ΔGbind.

cFos [5] = molecular target: T1, cFos; assay: Thermal denaturation (CD at 222 nm) of peptide-cFos mixtures; format: binding; settings: judged from thermal denaturation profiles and CD spectra of mixtures with cFos
Method: as §3

Compound | interaction with cJun (in words) (cJun) | dimer exchange on mixing cFos-cFos with cJun-peptide (cFos [1]) | dimer exchange on mixing cJun-cJun with cFos-peptide (cFos [1]) | Peptide-cFos Ɵ222/208 (20ºC) (cFos [2]) | Peptide-cFos Fraction helical (ƒH) (cFos [2]) | stability in human serum (Serum stability) | Homotypic Ɵ222/208 (20ºC) [3] | Fraction helical (ƒH), homotypic ([3]; 20°C, 150 µM, pH 7) | TΔS [ΔH – ΔG] (cFos [4]; calculated according to TΔS = ΔH−ΔG) [kcal/mol] | ΔH (cFos [4]; pH 7) [kcal/mol] | helicity of peptide in isolation ([3]; from CD spectra, 20°C, 150 µM, pH 7) [%] | interaction with cFos (in words) (cFos [5])
CC[C@H](C)[C@@H]1NC(=O)[C@H](Cc2c[nH]cn2)NC(=O)[C@@H](NC(=O)[C@H](CCCNC(=N)N)NC(=O)[C@H](CC(C)C)NC(=O)[C@@H]2CC(=O)NCCCC[C@H](NC(=O)[C@H](CCCNC(=N)N)NC(=O)[C@H](CC(C)C)NC(=O)[C@@H]3CC(=O)NCCCC[C@H](NC(=O)[C@H](CCCNC(=N)N)NC(=O)[C@H](CC4CCCCC4)NC(C)=O)C(=O)N[C@@H](CCC(=O)O)C(=O)N[C@@H]([C@@H](C)CC)C(=O)N[C@@H](Cc4ccc(O)cc4)C(=O)N3)C(=O)N[C@@H](CCCCN)C(=O)N[C@@H](C)C(=O)N[C@@H](CC(N)=O)C(=O)N2)CCCCNC(=O)C[C@@H](C(=O)N[C@@H](CC2CCCCC2)C(N)=O)NC(=O)[C@H](C)NC1=O [compound 24, Ac-cyclo-(3,7; 10,14; 17,21)-ChaR[KEIYD]LR[KKAND]LR[KHIAD]Cha-NH2] (Ac-[Cha]RKEIYDLRKKANDLRKHIAD[Cha]-NH2; lactam 3-7, 10-14, 17-21) | none of the peptides form a stable interaction with cJun | dimer exchange did occur; also recorded: dimer exchange has occurred | no change in binding partner for peptide had occurred; also recorded: no change has occurred | 1.00 | 0.52 | resistant to proteolytic degradation in serum; also recorded: fairly stable in human serum over 4 h; also recorded: much more stable in human serum at 37° than the same peptide lacking the constraints | 1.08 | 0.69 |  |  |  | 
Ac-ASTDTLQAETDQLEDEKYALQTEIANLLKEKEKLGAP-NH2 [cFos] |  |  |  |  |  |  | 0.59 | 0.20 |  |  |  | 
CC[C@H](C)[C@H](NC(=O)[C@H](Cc1c[nH]cn1)NC(=O)[C@@H]1CC(=O)NCCCC[C@H](NC(=O)[C@H](C)NC(=O)[C@H](CCCCN)NC(=O)[C@H](CO)NC(=O)[C@H](CCCNC(=N)N)NC(=O)[C@H](CC2CCCCC2)NC(=O)[C@@H]2CC(=O)NCCCC[C@H](NC(=O)[C@H](CCCCN)NC(=O)[C@H](CC(C)C)NC(C)=O)C(=O)N[C@@H](CCC(=O)O)C(=O)N[C@@H]([C@@H](C)CC)C(=O)N[C@@H](Cc3ccc(O)cc3)C(=O)N2)C(=O)N[C@@H](CCSC)C(=O)N[C@@H](CC(C)C)C(=O)N[C@@H](CCCNC(=N)N)C(=O)N1)C(=O)N[C@@H](C)C(=O)N[C@@H](CCC(N)=O)C(=O)N[C@@H](CC(C)C)C(N)=O [compound 17] (Ac-LKKEIYD[Cha]RSKAKMLRDHIAQL-NH2; lactam 3-7, 13-17) | none of the peptides form a stable interaction with cJun |  |  | 0.90 | 0.40 |  | 0.91 | 0.42 |  |  |  | 
Ac-ASAAELEERAKTLKAEIYELRSKANMLREHIAQLGAP-NH2 [JunWCANDI, reference compound] |  |  |  | 0.97 | 0.42 |  | 0.79 | 0.19 | -6.9 | -14.8 | 19 | 
CC[C@H](C)[C@H](NC(=O)[C@H](Cc1c[nH]cn1)NC(=O)[C@@H]1CC(=O)NCCCC[C@H](NC(=O)[C@H](C)NC(=O)[C@H](CCCCN)NC(=O)[C@H](CO)NC(=O)[C@H](CCCNC(=N)N)NC(=O)[C@H](CC(C)C)NC(=O)[C@@H]2CC(=O)NCCCC[C@H](NC(=O)[C@H](CCCCN)NC(=O)[C@H](CC3CCCCC3)NC(C)=O)C(=O)N[C@@H](CCC(=O)O)C(=O)N[C@@H]([C@@H](C)CC)C(=O)N[C@@H](Cc3ccc(O)cc3)C(=O)N2)C(=O)N[C@@H](CCSC)C(=O)N[C@@H](CC(C)C)C(=O)N[C@@H](CCCNC(=N)N)C(=O)N1)C(=O)N[C@@H](C)C(=O)N[C@@H](CCC(N)=O)C(=O)N[C@@H](CC1CCCCC1)C(N)=O [compound 20] (Ac-[Cha]KKEIYDLRSKAKMLRDHIAQ[Cha]-NH2; lactam 3-7, 13-17) | none of the peptides form a stable interaction with cJun |  |  | 0.92 | 0.49 |  | 0.91 | 0.51 |  |  |  | profiles consistent with a strong interaction affinity for cFos
